Results on two compounds are retold here after PMC3083694, “Effects of Intermediates between Vitamins K2 and K3 on Mammalian DNA Polymerase Inhibition and Anti-Inflammatory Activity” (International Journal of Molecular Sciences, 2011).

Where only a bound is given, the exact number is not on record here.

For experiment [1], the target named is T1, T4 DNA polymerase (Enterobacteria phage T4, UniProt P04415).
T1 construct: purchased
Briefly: DNA polymerase activity assay, T4 pol. It counts as biochemical. The settings on record: prokaryotic pol; read-out: IC50 Value of MK-2, T4 DNA polymerase. On the procedure:
(§1) Pols from mammals, a fish (cherry salmon), an insect (fruit fly) and a plant (cauliflower) were purified, and prokaryotic pols and other DNA metabolic enzymes, such as T7 RNA polymerase, T4 polynucleotide kinase and bovine deoxyribonuclease I, were purchased as described in our previous report. The activities of all pols and other DNA metabolic enzymes were measured as described in previous reports.
(§2) The components of the pol assay were poly(dA)/oligo(dT)18 and dTTP as the DNA template-primer and 2′-deoxyribonucleoside 5′-triphosphate (dNTP) substrate, respectively. VK2, VK3, and their synthesized derivatives (i.e., MK-3, MK-2 and MK-1) were dissolved in dimethyl sulfoxide (DMSO) at various concentrations and sonicated for 30 s. The sonicated samples (4 μL) were mixed with 16 μL of each pol enzyme (final amount, 0.05 units) in 50 mM Tris-HCl (pH 7.5) containing 1 mM dithiothreitol, 50% glycerol and 0.1 mM EDTA, and kept at 0 °C for 10 min. […] Activity without the inhibitor was considered to be 100%, and the activity remaining at each concentration of inhibitor was determined relative to this value. […]

For experiment [2], the target named is T2, Rat DNA polymerase β (Rattus norvegicus, UniProt P06766).
T2 construct: made in house
Description: DNA polymerase activity assay, rat pol β. Conditions: X-family pol; read-out: IC50 Value of MK-2, Rat DNA polymerase β. It counts as biochemical. On the procedure:
as §1, §2

The target in experiment [3] is B-family pols (mammalian). Description: DNA polymerase activity assay, mammalian B-family pols. It counts as biochemical, mammals. Conditions: range over mammalian B-family pols α, δ, ɛ; read-out: 50% inhibition of the B family of pols. On the procedure:
as §1, §2

Experiment [4] addresses T3, Human DNA polymerase γ (Homo sapiens, UniProt P54098).
T3 construct: made in house
T3 sequence (P54098 1-1239): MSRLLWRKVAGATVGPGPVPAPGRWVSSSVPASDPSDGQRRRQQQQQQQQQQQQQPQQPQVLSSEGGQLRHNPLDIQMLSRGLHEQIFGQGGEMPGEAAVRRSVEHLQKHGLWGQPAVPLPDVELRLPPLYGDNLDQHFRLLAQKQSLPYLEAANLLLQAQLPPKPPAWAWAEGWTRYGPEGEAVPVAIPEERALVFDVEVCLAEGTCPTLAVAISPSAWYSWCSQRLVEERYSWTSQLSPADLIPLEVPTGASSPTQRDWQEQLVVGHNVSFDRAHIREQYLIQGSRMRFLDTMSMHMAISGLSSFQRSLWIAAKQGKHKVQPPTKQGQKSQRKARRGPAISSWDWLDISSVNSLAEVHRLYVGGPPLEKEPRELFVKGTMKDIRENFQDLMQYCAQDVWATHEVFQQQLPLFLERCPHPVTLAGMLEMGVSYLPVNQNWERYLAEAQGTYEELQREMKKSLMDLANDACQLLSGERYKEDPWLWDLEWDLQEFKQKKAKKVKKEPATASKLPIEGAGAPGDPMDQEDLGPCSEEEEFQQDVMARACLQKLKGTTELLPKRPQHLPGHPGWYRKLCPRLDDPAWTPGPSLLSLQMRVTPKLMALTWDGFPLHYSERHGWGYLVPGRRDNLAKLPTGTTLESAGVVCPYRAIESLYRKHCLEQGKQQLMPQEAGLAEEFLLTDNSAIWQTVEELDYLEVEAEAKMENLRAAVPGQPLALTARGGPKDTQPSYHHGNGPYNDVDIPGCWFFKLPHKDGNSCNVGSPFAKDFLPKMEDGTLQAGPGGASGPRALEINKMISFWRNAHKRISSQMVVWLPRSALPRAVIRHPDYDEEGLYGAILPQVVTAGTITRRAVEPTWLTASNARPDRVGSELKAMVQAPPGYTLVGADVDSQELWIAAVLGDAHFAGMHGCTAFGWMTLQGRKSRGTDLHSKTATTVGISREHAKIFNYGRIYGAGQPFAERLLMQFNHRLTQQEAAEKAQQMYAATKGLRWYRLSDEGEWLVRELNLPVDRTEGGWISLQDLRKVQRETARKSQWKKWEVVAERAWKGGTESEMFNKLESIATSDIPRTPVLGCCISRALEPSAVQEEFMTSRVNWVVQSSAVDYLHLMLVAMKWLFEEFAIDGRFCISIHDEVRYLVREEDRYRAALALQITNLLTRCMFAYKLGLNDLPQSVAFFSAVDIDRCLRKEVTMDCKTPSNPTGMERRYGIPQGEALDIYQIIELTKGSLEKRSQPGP
The arrangement: method as in PMID 18312466, PMID 18698499, PMID 20030669, PMID 20881898. The settings on record: earlier work of the authors; cited from earlier work.

T1 sequence (P04415 whole entry): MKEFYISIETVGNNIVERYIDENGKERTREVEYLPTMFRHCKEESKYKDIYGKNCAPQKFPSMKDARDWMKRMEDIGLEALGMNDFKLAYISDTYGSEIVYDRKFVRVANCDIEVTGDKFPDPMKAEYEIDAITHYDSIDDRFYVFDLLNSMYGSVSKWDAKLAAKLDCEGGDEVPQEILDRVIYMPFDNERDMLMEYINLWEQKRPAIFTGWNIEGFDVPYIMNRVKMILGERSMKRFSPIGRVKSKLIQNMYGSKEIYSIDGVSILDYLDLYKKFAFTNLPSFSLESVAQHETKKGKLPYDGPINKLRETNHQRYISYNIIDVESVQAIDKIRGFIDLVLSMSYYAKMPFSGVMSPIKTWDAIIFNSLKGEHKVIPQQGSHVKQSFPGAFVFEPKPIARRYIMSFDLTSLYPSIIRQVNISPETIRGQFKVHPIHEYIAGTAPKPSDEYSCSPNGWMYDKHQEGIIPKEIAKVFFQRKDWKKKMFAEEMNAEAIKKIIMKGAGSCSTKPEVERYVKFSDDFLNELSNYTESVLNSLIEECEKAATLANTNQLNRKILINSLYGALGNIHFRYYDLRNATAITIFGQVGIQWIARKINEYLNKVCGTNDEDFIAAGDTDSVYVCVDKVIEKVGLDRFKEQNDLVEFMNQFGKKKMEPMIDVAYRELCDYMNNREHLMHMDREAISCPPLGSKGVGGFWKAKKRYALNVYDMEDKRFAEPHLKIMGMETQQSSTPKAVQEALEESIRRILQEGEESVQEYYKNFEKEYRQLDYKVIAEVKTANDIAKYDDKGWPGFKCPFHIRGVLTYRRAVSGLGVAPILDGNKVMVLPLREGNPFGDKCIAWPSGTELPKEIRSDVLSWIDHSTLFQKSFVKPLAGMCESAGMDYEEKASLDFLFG

With `CC(C)=CCC/C(C)=C/CC1=C(C)C(=O)c2ccccc2C1=O` [MK-2], the IC50 was greater than 200 µM in experiment [1], 31 ± 1.8 µM in experiment [2] and 27.6 to 29.1 µM in experiment [3].

Turning to `CC(C)=CCC/C(C)=C/CC/C(C)=C/CC/C(C)=C/CC1=C(C)C(=O)c2ccccc2C1=O` [MK-4, menaquinone 4, reference compound], the “Inhibitor of human pol γ” value in experiment [4] is “not”.
